We go through one compound from patent US9776999B2, “Antiparisitic dihydroazole compounds and compositions comprising same” (MERIAL, INC., priority 2009, dated 2017).

Each structure is given as a SMILES string.

This assay concerns Ctenocephalides felis. Description: Contact activity of compounds against fleas (Method B). Particulars: adult fleas, treated filter paper; 72 hours assessment; test concentration of 100 ppm or less; versus untreated controls.

Description: METHOD B: Screening Method to test Contact Activity of Compounds Against Fleas
A solution of the test compound was dispensed, using a pipette, onto filter paper placed into a glass vial. The filter paper was allowed to dry before infesting each vial with 10 adult Ctenocephalides felis. The treated Ctenocephalides felis were held in a controlled environment (24° C., 90-95% relative humidity) and assessment was performed at 24, 48 and 72 hours after application in comparison with untreated controls.

On to `CSCCNC(=O)c1ccc(C2=NOC(c3cc(C(F)(F)F)cc(C(F)(F)F)c3)(C(F)(F)F)C2)n2cccc12` (stereo not shown) [Compound 1.009, 5-[5-(3,5-Bistrifluoromethylphenyl)-5-trifluoromethyl-4,5-dihydroisoxazol-3-yl]-indolizine-8-carboxylic acid (2-methylthioethyl)-amide], for which the “control (Ctenocephalides felis, contact)” value was “at least 80%”.
